Patent US8022206B2 (OSI Pharmaceuticals, LLC, priority 2008, dated 2011)

Key:
MET (human) = MET (human) (Homo sapiens, UniProt P08581); assay: MET (human) AlphaScreen kinase assay, Km of ATP; format: biochemical; conditions: AlphaScreen, Km of ATP; read-out: Met biochemical IC50
How it was run: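 Human MET at lot-optimised concentration in 50 mM Tris pH 7.4 buffer with 1 mM DTT, compound at 1% DMSO final; enzyme starts the reaction, 60 min at RT.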

RON (human) = RON (human) (Homo sapiens, UniProt Q04912); assay: RON (human) AlphaScreen kinase assay, Km of ATP; format: biochemical; conditions: AlphaScreen, Km of ATP; read-out: RON biochemical IC50
RON (human), sequence (Q04912 25-1400): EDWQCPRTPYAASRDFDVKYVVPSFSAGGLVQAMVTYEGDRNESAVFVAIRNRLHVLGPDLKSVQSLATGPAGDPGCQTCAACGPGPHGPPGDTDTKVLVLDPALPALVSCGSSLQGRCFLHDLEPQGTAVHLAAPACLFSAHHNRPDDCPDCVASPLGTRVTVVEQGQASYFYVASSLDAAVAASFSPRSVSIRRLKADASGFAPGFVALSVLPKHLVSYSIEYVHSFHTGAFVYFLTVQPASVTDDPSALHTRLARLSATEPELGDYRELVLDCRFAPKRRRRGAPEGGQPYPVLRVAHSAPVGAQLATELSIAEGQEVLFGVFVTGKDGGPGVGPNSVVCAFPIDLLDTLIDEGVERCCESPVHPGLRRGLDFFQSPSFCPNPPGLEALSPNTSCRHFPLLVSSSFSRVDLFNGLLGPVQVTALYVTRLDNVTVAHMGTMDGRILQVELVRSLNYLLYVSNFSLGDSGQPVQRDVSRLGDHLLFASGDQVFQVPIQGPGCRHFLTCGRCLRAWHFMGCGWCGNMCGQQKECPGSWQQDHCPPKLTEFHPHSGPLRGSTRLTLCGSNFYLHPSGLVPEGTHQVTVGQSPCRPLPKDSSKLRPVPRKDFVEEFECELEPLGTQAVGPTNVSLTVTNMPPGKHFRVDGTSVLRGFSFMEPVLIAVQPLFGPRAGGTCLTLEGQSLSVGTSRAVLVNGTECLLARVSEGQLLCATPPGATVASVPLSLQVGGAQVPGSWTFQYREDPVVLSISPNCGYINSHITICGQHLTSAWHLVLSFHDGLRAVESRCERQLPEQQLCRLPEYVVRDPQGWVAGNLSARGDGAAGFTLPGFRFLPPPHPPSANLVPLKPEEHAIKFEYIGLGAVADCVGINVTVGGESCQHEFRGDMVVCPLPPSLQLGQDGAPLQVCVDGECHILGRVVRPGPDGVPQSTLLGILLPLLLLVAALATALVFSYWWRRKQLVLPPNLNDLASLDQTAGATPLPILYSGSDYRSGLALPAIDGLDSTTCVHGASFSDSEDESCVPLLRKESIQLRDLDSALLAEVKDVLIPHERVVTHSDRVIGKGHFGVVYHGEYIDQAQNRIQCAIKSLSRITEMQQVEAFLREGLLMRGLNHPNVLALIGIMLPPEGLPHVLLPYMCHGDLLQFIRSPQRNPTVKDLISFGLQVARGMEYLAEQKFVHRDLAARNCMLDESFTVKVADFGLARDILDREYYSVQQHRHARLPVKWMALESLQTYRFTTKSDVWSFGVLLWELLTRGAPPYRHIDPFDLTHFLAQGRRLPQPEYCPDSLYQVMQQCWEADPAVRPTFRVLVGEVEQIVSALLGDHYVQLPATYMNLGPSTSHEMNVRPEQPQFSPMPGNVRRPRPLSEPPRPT
How it was run: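 Detection used PT66 AlphaScreen beads added in Tris pH 7.5/NaCl/EDTA/BSA buffer, read after 1 h incubation. Vehicle-only DMSO wells served as controls.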

MET (human), sequence (P08581 25-1390): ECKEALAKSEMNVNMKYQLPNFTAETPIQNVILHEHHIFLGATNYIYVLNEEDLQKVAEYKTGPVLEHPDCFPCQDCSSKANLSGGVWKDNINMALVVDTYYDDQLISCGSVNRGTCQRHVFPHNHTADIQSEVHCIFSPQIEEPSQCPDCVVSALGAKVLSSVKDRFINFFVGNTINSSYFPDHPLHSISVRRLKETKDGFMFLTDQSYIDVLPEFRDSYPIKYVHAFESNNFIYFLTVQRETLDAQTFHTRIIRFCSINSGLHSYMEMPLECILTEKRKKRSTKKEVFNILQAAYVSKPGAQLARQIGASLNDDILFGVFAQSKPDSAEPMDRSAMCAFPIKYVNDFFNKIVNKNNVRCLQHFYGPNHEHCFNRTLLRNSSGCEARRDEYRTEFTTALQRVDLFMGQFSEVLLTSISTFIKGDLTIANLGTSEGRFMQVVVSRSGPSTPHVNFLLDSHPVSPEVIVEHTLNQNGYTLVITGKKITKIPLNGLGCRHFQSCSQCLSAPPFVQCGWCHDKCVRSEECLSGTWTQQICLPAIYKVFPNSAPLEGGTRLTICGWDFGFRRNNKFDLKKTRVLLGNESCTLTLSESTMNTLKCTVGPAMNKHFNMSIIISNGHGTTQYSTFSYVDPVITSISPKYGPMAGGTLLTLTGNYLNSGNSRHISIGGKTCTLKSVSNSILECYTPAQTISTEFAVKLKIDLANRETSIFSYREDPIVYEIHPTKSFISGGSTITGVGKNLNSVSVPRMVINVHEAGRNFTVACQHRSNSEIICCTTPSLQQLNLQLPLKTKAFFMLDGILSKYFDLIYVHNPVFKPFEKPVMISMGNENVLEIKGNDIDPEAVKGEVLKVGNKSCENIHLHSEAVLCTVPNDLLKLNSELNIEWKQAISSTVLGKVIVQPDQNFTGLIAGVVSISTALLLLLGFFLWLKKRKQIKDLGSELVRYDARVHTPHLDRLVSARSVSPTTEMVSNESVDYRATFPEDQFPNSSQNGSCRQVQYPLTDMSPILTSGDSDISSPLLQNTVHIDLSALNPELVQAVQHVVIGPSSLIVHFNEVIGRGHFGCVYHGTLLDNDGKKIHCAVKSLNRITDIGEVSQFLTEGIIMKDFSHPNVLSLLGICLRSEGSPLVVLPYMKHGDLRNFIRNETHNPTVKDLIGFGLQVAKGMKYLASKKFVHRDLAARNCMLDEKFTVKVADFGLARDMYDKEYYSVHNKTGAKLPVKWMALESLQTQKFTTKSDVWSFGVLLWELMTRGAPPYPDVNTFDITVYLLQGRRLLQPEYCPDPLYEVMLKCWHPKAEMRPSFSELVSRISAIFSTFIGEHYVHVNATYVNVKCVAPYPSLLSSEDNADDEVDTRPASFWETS

Row | Structure (SMILES) | IC50 (MET (human)) | IC50 (RON (human))
1 | C[C@@H](Oc1c(N)ncc2c(C3=CCS(=O)(=O)CC3)coc12)c1c(Cl)ccc(F)c1Cl [Example 140, 7-[(1R)-1-(2,6-Dichloro-3-fluorophenyl)ethoxy]-3-(1,1-dioxido-3,6-dihydro-2H-thiopyran-4-yl)furo[3,2-c]pyridin-6-amine] | < 500 nM | 500 to 5000 nM
2 | C[C@@H](Oc1c(N)ncc2c(C3=CCN(C(=O)CO)CC3)coc12)c1c(Cl)ccc(F)c1Cl [Example 142, 1-[4-{6-Amino-7-[(1R)-1-(2,6-dichloro-3-fluorophenyl)ethoxy]furo[3,2-c]pyridin-3-yl}-3,6-dihydropyridin-1(2H)-yl]-2-hydroxyethanone] | < 500 nM | 500 to 5000 nM
3 | C[C@@H](Oc1c(N)ncc2c(C3=CCCN(C(N)=O)C3)coc12)c1c(Cl)ccc(F)c1Cl [Example 143, 5-{6-Amino-7-[(R)-1-(2,6-dichloro-3-fluorophenyl)ethoxy]furo[3,2-c]pyridin-3-yl}-3,6-dihydro-2H-pyridine-1-carboxamide] | < 500 nM | 500 to 5000 nM
4 | C[C@@H](Oc1c(N)ncc2c(C3=CCCC(N)C3)coc12)c1c(Cl)ccc(F)c1Cl (stereo partly drawn) [Example 145, 3-(5-Aminocyclohex-1-enyl)-7-[(R)-1-(2,6-dichloro-3-fluoro-phenyl)ethoxy]furo[3,2-c]pyridin-6-ylamine] | 500 to 5000 nM | < 500 nM
5 | C[C@@H](Oc1c(N)ncc2c(C3=CC(N)CCC3)coc12)c1c(Cl)ccc(F)c1Cl (stereo partly drawn) [Example 146, 3-(3-Aminocyclohex-1-enyl)-7-[(R)-1-(2,6-dichloro-3-fluoro-phenyl)ethoxy]furo[3,2-c]pyridin-6-ylamine] | < 500 nM | 500 to 5000 nM
6 | C[C@@H](Oc1c(N)ncc2c(C3=CCN(C(=O)NC(C)(C)C)CC3)coc12)c1c(Cl)ccc(F)c1Cl [Example 148, 4-{6-Amino-7-[(1R)-1-(2,6-dichloro-3-fluorophenyl)ethoxy]furo[3,2-c]pyridin-3-yl}-N-tert-butyl-3,6-dihydropyridine-1(2H)-carboxamide] | < 500 nM | 500 to 5000 nM
7 | CC(C)NC(=O)N1CC=C(c2coc3c(O[C@H](C)c4c(Cl)ccc(F)c4Cl)c(N)ncc23)CC1 [Example 149, 4-{6-Amino-7-[(1R)-1-(2,6-dichloro-3-fluorophenyl)ethoxy]furo[3,2-c]pyridin-3-yl}-N-(propan-2-yl)-3,6-dihydropyridine-1(2H)-carboxamide] | < 500 nM | 500 to 5000 nM
8 | C[C@@H](Oc1c(N)ncc2c(C3=CCN(C(=O)Nc4ccccc4F)CC3)coc12)c1c(Cl)ccc(F)c1Cl [Example 150, 4-{6-Amino-7-[(1R)-1-(2,6-dichloro-3-fluorophenyl)ethoxy]furo[3,2-c]pyridin-3-yl}-N-(2-fluorophenyl)-3,6-dihydropyridine-1(2H)-carboxamide] | 500 to 5000 nM | 500 to 5000 nM
9 | CCNC(=O)N1CC=C(c2coc3c(O[C@H](C)c4c(Cl)ccc(F)c4Cl)c(N)ncc23)CC1 [Example 151, 4-{6-Amino-7-[(1R)-1-(2,6-dichloro-3-fluorophenyl)ethoxy]furo[3,2-c]pyridin-3-yl}-N-ethyl-3,6-dihydropyridine-1(2H)-carboxamide] | < 500 nM | 500 to 5000 nM
10 | C[C@@H](Oc1c(N)ncc2c(C3=CCN(C(=O)Nc4ccccc4Cl)CC3)coc12)c1c(Cl)ccc(F)c1Cl [Example 152, 4-{6-Amino-7-[(1R)-1-(2,6-dichloro-3-fluorophenyl)ethoxy]furo[3,2-c]pyridin-3-yl}-N-(2-chlorophenyl)-3,6-dihydropyridine-1(2H)-carboxamide] | 500 to 5000 nM | 500 to 5000 nM
11 | C[C@@H](Oc1c(N)ncc2c(C3=CC4CCC(C3)N4)coc12)c1c(Cl)ccc(F)c1Cl (stereo partly drawn) [Example 153, 3-(8-Azabicyclo[3.2.1]oct-2-en-3-yl)-7-[(1R)-1-(2,6-dichloro-3-fluorophenyl)ethoxy]furo[3,2-c]pyridin-6-amine] | < 500 nM | 500 to 5000 nM
12 | CC(Oc1c(N)ncc2c(-c3cnn(C4CCNCC4)c3)coc12)c1c(Cl)c(F)cc(OCCCN)c1Cl (stereo not drawn) [Example 155, 7-{1-[3-(3-Aminopropoxy)-2,6-dichloro-5-fluorophenyl]ethoxy}-3-[1-(piperidin-4-yl)-1H-pyrazol-4-yl]furo[3,2-c]pyridin-6-amine] | < 500 nM | < 500 nM
13 | CC(Oc1c(N)ncc2c(-c3cnn(C4CCNCC4)c3)coc12)c1c(Cl)c(F)cc(OCCCN(C)C)c1Cl (stereo not drawn) [Example 156, 7-(1-{2,6-Dichloro-3-[3-(dimethylamino)propoxy]-5-fluorophenyl}ethoxy)-3-[1-(piperidin-4-yl)-1H-pyrazol-4-yl]furo[3,2-c]pyridin-6-amine] | < 500 nM | < 500 nM
14 | CC(Oc1c(N)ncc2c(-c3cnn(C4CCNCC4)c3)coc12)c1c(Cl)c(F)cc(OCCN(C)C)c1Cl (stereo not drawn) [Example 157, 7-(1-{2,6-Dichloro-3-[2-(dimethylamino)ethoxy]-5-fluorophenyl}ethoxy)-3-[1-(piperidin-4-yl)-1H-pyrazol-4-yl]furo[3,2-c]pyridin-6-amine] | < 500 nM | < 500 nM
15 | CC(Oc1c(N)ncc2c(-c3cnn(C4CCNCC4)c3)coc12)c1c(Cl)c(F)cc(OC2CCNCC2)c1Cl (stereo not drawn) [Example 158, 7-{1-[2,6-Dichloro-3-fluoro-5-(piperidin-4-yloxy)phenyl]ethoxy}-3-[1-(piperidin-4-yl)-1H-pyrazol-4-yl]furo[3,2-c]pyridin-6-amine] | < 500 nM | < 500 nM
16 | CC(Oc1c(N)ncc2c(-c3cnn(C4CCNCC4)c3)coc12)c1c(Cl)c(F)cc(OC2CNC2)c1Cl (stereo not drawn) [Example 159, 7-{1-[3-(Azetidin-3-yloxy)-2,6-dichloro-5-fluorophenyl]ethoxy}-3-[1-(piperidin-4-yl)-1H-pyrazol-4-yl]furo[3,2-c]pyridin-6-amine] | < 500 nM | < 500 nM
17 | C[C@@H](Oc1c(N)ncc2c(C3=CCN(C(=O)[C@]4(C)CCCN4)CC3)coc12)c1c(Cl)ccc(F)c1Cl [Example 160, [4-{6-Amino-7-[(1R)-1-(2,6-dichloro-3-fluorophenyl)ethoxy]furo[3,2-c]pyridin-3-yl}-3,6-dihydropyridin-1(2H)-yl][(2S)-2-methylpyrrolidin-2-yl]methanone] | < 500 nM | < 500 nM
18 | C[C@@H](Oc1c(N)ncc2c(-c3cnn([C@H]4CCNC4)c3)coc12)c1c(Cl)ccc(F)c1Cl [Example 161, 7-[(1R)-1-(2,6-dichloro-3-fluorophenyl)ethoxy]-3-{1-[(3S)-pyrrolidin-3-yl]-1H-pyrazol-4-yl}furo[3,2-c]pyridin-6-amine] | < 500 nM | < 500 nM
19 | C[C@@H](Oc1c(N)ncc2c(-c3cnn([C@@H]4CCNC4)c3)coc12)c1c(Cl)ccc(F)c1Cl [Example 162, 7-[(1R)-1-(2,6-dichloro-3-fluorophenyl)ethoxy]-3-{1-[(3R)-pyrrolidin-3-yl]-1H-pyrazol-4-yl}furo[3,2-c]pyridin-6-amine] | < 500 nM | < 500 nM
20 | C[C@@H](Oc1c(N)ncc2c(C3=CCN(C(C)(C)C)CC3)coc12)c1c(Cl)ccc(F)c1Cl [Example 163, 3-(1-tert-Butyl-1,2,3,6-tetrahydropyridin-4-yl)-7-[(1R)-1-(2,6-dichloro-3-fluorophenyl)ethoxy]furo[3,2-c]pyridin-6-amine] | < 500 nM | < 500 nM
21 | C[C@@H](Oc1c(N)ncc2c(C3=CC4CCC(C3)N4C)coc12)c1c(Cl)ccc(F)c1Cl (stereo partly drawn) [Example 164, 7-[(1R)-1-(2,6-Dichloro-3-fluorophenyl)ethoxy]-3-(8-methyl-8-azabicyclo[3.2.1]oct-2-en-3-yl)furo[3,2-c]pyridin-6-amine] | < 500 nM | < 500 nM
22 | C[C@@H](Oc1c(N)ncc2c(-c3cnn(C4CCNCC4)c3)c(Br)oc12)c1c(Cl)ccc(F)c1Cl [Example 167, 2-Bromo-7-[(R)-1-(2,6-dichloro-3-fluorophenyl)ethoxy]-3-(1-piperidin-4-yl-1H-pyrazol-4-yl)-furo[3,2-c]pyridin-6-ylamine] | < 500 nM | 500 to 5000 nM
23 | Cc1oc2c(O[C@H](C)c3c(Cl)ccc(F)c3Cl)c(N)ncc2c1-c1cnn(C2CCNCC2)c1 [Example 168, 7-[(R)-1-(2,6-Dichloro-3-fluorophenyl)ethoxy]-2-methyl-3-(1-piperidin-4-yl-1H-pyrazol-4-yl)-furo[3,2-c]pyridin-6-ylamine] | < 500 nM | 500 to 5000 nM
24 | C[C@@H](Oc1c(N)ncc2c(-c3cnn(C4CCNCC4)c3)c(C#N)oc12)c1c(Cl)ccc(F)c1Cl [Example 169, 6-Amino-7-[(R)-1-(2,6-dichloro-3-fluorophenyl)ethoxy]-3-(1-piperidin-4-yl-1H-pyrazol-4-yl)-furo[3,2-c]pyridine-2-carbonitrile] | 500 to 5000 nM | 500 to 5000 nM
25 | C[C@@H](Oc1c(N)ncc2c(-c3cnn(C4CCNCC4)c3)c(-c3ccccc3)oc12)c1c(Cl)ccc(F)c1Cl [Example 170, 7-[(R)-1-(2,6-Dichloro-3-fluorophenyl)ethoxy]-2-phenyl-3-(1-piperidin-4-yl-1H-pyrazol-4-yl)-furo[3,2-c]pyridin-6-ylamine] | 500 to 5000 nM | 500 to 5000 nM
26 | C[C@@H](Oc1c(N)ncc2c(-c3cnn(C4CCNCC4)c3)c(C#CC(C)(C)O)oc12)c1c(Cl)ccc(F)c1Cl [Example 171, 4-[6-Amino-7-[(R)-1-(2,6-dichloro-3-fluorophenyl)ethoxy]-3-(1-piperidin-4-yl-1H-pyrazol-4-yl)-furo[3,2-c]pyridin-2-yl]-2-methylbut-3-yn-2-ol] | < 500 nM | < 500 nM
27 | C[C@@H](Oc1c(N)ncc2c(-c3cnn(C4CCNCC4)c3)c(C#CCCO)oc12)c1c(Cl)ccc(F)c1Cl [Example 172, 4-[6-Amino-7-[(R)-1-(2,6-dichloro-3-fluorophenyl)ethoxy]-3-(1-piperidin-4-yl-1H-pyrazol-4-yl)-furo[3,2-c]pyridin-2-yl]-but-3-yn-1-ol] | < 500 nM | < 500 nM
